Assay results: patent US20110160147A1, “NOVEL DUAL TARGETING A[…]” (priority 2008, published 2011)
Read-outs that look alike come from different tables or passages of the source.

Columns and labels:
[1] = target: αvβ3 receptor (Homo sapiens, UniProt P05106+P06756); experiment: Solid-phase binding assay, inhibition of [125I]Echistatin binding to αvβ3 receptor
Method: (§1) The receptor binding assays were performed as described (Orlando R. A., et al., J. Biol. Chem. 1991, 266, 19543). αvβ3 and αvβ5 were diluted to 500 ng/ml and 1 μg/ml, respectively, in coating buffer (20 mM Tris, pH 7.4, 150 mM NaCl, 2 mM CaCl2, 1 mM MgCl2, 1 mM MnCl2) and an aliquot of 100 μL was added to a 96-well microtiter plate and incubated overnight at 4° C. The plate was washed once with blocking/binding buffer (50 mM Tris, pH 7.4, 100 mM NaCl, 2 mM CaCl2, 1 mM MgCl2, 1 mM MnCl2, 1% bovine serum albumin), and then was incubated for additional 2 h at RT The plate was rinsed twice with the same buffer and incubated for 3 h at RT with radiolabeled ligand [^125I]Echistatin (Amersham Pharmacia Biotech) 0.05 nM (0.1 nM for αv β5) in the presence of competing inhibitors. After the incubation, the wells were washed and radioactivity was determined with a gamma-counter (Packard). Non-specific binding of ligand was determined with molar excess (200 nM) of cold echistatin.
(§2) The IC50 values reported in Tables 1 and 2 were calculated as the concentrations of compounds required for 50% inhibition of echistatin binding and were estimated by the Prism GraphPad program. The Ki of the competing ligands were calculated according to the Cheng-Prusoff equation (Cheng Y. C., et al., Biochem. Pharmacol., 1973, 22, 3099). Values are the mean±log standard error of triplicate determinations from two independent experiments.

[2] = system: PC3 prostate carcinoma cells; type: cell-based, human
Method: (§3) A2780 human ovarian carcinoma and PC3 prostate carcinoma cells were grown in medium culture RPMI 1640 containing 10% fetal bovine serum and 50 μg/ml gentamycin sulfate. Cells were maintained in a 37° C. incubator with saturated humidity and an atmosphere of 95% air and 5% CO2. A2780 tumour cell line expresses high levels of αvβ5 integrin, and PC3 low levels of both integrins.
(§4) In 96-well tissue culture plates, 50 μl/well of a solution of vitronectin (5 μg/ml) were added for 2 h at room temperature. The solutions were removed upsetting the plates. 50 μl/well of a solution 1% BSA were added for 1 h at RT. The plates were washed by addition of 100 μl/well of medium culture RPMI 1640 without fetal calf serum (FCS). The washing was repeated twice. The molecules were added at different concentrations in the range between 0.039 μM and 20 μM. The solutions were prepared by dilution 1:2 in medium culture without FCS. Tumour cells in the flasks were washed in saline solution before to be detached by scraper, by the addition of 5 ml of medium culture without FCS and 1% BSA. Tumour cells were counted after resuspension and added at an appropriate cellular density (40000-50000 cells/well). The plates were incubated for 1 h at 37° C. in humidified incubator with 5% CO2. Then, the solutions were removed upsetting the plates and washed once with 200 μl/well of PBS with Ca^2+ e Mg^2+. Tumour cells were fixed with 100 μl of a solution 4% paraformaldehyde in 0.2 M Sorensen phosphate buffer pH 7.2-7.4 for 10 min at RT The plates were upset and 100 μl of 1% Toluidine Blu solution were added for 10 min at RT The plates were washed twice by immersion in bi-distilled water and then dried at 60° C. in thermostat incubator (Kottermann). 100 μl/well of 1% SDS were added. The plates were kept under stirring for 20 min at RT and were then evaluated by Victor 1420 multilabel counter (Wallac) at 600 nm.
(§5) The IC50 value as parameter to measure the inhibiting effect of the molecules on tumour cell adhesion to vitronectin was evaluated using “ALLFIT” computer program.

[3] = system: A2780 ovarian carcinoma cells; type: cell-based, human
Method: as §3, §4, §5

[4] = target: αvβ5 receptors (Homo sapiens, UniProt P06756+P18084); experiment: Solid-phase binding assay, inhibition of [125I]Echistatin binding to αvβ5 receptors
Sequence of αvβ5 receptors (P06756 31-889 limits assumed): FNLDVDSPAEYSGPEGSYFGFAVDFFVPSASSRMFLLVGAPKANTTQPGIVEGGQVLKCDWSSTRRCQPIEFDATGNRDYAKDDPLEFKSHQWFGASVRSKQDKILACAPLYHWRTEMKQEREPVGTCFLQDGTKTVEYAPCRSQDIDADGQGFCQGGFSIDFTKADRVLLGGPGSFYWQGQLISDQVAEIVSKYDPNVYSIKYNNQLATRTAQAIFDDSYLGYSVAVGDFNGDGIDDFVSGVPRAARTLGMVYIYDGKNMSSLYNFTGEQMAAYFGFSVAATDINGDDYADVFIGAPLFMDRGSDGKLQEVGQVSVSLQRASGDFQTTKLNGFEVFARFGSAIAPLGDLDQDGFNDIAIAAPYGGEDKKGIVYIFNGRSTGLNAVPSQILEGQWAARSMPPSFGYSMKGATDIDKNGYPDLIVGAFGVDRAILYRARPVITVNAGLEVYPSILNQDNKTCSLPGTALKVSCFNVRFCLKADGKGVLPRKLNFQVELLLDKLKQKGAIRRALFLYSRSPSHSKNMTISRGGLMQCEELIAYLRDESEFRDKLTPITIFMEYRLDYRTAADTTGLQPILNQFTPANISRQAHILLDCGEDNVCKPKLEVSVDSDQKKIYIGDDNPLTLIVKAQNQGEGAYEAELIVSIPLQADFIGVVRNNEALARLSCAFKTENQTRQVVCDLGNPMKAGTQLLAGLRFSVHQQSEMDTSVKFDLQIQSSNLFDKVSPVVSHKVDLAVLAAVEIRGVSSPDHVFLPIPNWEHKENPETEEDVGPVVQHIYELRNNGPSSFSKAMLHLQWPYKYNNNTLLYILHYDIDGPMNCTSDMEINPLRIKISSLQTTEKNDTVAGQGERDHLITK
Sequence of αvβ5 receptors (P06756 891-1048 partner limits assumed): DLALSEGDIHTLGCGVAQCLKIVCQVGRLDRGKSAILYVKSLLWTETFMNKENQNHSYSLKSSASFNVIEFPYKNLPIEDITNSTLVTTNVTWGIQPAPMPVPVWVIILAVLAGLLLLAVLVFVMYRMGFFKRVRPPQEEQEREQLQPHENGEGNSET
Sequence of αvβ5 receptors (P18084 24-799): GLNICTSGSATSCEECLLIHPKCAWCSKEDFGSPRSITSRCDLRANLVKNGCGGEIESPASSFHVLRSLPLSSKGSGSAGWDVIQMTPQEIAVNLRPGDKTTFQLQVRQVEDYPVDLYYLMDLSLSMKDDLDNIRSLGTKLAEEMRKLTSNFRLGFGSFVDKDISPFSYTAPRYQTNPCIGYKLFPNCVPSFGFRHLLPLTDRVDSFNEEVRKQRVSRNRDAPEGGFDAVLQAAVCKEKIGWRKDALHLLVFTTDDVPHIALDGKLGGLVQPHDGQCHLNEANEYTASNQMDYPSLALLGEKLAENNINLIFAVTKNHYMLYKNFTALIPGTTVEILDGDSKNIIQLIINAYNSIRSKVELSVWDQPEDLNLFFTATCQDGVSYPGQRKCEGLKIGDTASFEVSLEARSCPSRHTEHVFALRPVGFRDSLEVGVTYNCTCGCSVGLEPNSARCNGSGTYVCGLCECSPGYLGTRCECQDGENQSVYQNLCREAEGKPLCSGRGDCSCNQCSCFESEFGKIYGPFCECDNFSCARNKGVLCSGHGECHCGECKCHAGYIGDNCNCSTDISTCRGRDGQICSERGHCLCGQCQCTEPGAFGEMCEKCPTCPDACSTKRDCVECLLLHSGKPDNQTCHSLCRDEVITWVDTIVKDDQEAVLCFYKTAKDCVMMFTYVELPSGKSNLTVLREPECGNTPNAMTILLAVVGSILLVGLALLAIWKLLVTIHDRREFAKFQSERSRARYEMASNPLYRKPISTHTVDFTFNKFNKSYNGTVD
Method: as §1, §2

[5] = system: PC3 prostate carcinoma cells; experiment: Cytotoxicity, sulphorodamine B test (PC3); type: cell-based, human
Method: (§6) To evaluate the effect of the compound on survival cells, the sulphorodamine B test was used. To measure the effects of the compounds on cell growth, PC3 human prostate carcinoma and A2780 human ovarian carcinoma cells were used. A2780 and PC3 tumour cells were grown RPMI 1640 containing 10% fetal bovine serum (GIBCO).
(§7) Tumour cells were seeded in 96-well tissue culture plates at approximately 10% confluence and were allowed to attach and recover for at least 24 h. Varying concentrations of the drugs were then added to each well to calculate their IC50 value (the concentration which inhibits the 50% of cell survival). The plates were incubated at 37° C. for 72 h. At the end of the treatment, the plates were washed by removal of the supernatant and addition of PBS 3 times. 200 μl PBS and 50 μl of cold 80% trichloroacetic acid (TCA) were added. The plates were incubated on ice for at least 1 h. TCA was removed and the plates were washed 3 times by immersion in distilled-water and dried on paper and at 40° C. for 5 min. Then 200 μl of 0.4% sulphorodamine B in 1% acetic acid were added. The plates were incubated at RT for further 30 min. Sulphorodamine B was removed, the plates were washed by immersion in 1% acetic acid 3 times, then they were dried on paper and at 40° C. for 5 min. Then 200 μl Tris 10 mM were added, the plates were kept under stirring for 20 min. The cell survival was determined by means of optical density using a Multiskan spectrofluorimeter at 540 nm. The amount of cells killed was calculated as the percentage decrease in sulphorodamine B binding compared with control cultures.
(§8) The IC50 values were calculated with the “ALLFIT” program.

[6] = system: A2780 ovarian carcinoma cells; experiment: Cytotoxicity, sulphorodamine B test (A2780); type: cell-based, human
Method: as §6, §7, §8

[7] = Stability of the linker-containing conjugate in various assays; settings: various assays conducted
Text: A number of linker-containing peptides as substrates of Cathepsin B have already been described, for example, Phe-Lys, Val-Cit (Dubowchick G. M., et al, Bioconjugate Chem., 2002, 13, 4, 855); Gly-Phe-Leu-Gly (Rejmanova P., et al, Biomaterials, 1985, 6, 1, 45); D-Ala-Phe-Lys (de Groot F. M. H., et al., Mol. Cancer. Ther., 2002, 1, 901). Some of these peptides have been successfully applied when attached to antibodies, which, due to their bulkiness, can shield them from plasma peptidases. However, when we experimented these peptide sequences applied to conjugates containing small ligands, as in the case of oligopeptides, they were immediately cleaved releasing the cytotoxic agent into the circulation, contrary to what described by other authors. […] The above cited paper from Dubowchick deals with cathepsin B-labile dipeptide ligands. The same authors also published four years before another study about the influence of the amino acid at position P2 when Cit amino acid was at P1 position, concluding that the best amino acid in such a position was Val because of hydrophobic interactions within the binding site of cathepsin B (Dubowchick G. M., et al, Bioorg. Med. Chem., 1998, 8, 3341), meanwhile the analogue containing Ala instead of Val contributed to slower noticeably the release of doxorubicin, which was clearly contrary to the objective of the study.

[8] = PC3, 1 h of treatment, read-out: IC50 ± SD, antiadhesive effect to vitronectin
[9] = A2780, 1 h of treatment, read-out: IC50 ± SD, antiadhesive effect to vitronectin
[10] = PC3, 72 h of treatment, read-out: IC50 ± SD, cytotoxicity
[11] = A2780, 72 h of treatment, read-out: IC50 ± SD, cytotoxicity
[12] = αvβ3, Cheng-Prusoff equation, read-out: Ki
[13] = αvβ3, [125I]Echistatin 0.05 nM, read-out: IC50 ± log SE, inhibition of [125I]Echistatin binding (converted)
[14] = αvβ5, Cheng-Prusoff equation, read-out: Ki
[15] = αvβ5, [125I]Echistatin 0.1 nM, read-out: IC50 ± log SE, inhibition of [125I]Echistatin binding (converted)

Sequence of αvβ3 receptor (P06756 31-889 limits assumed): as the sequence (P06756 31-889 limits assumed) above
Sequence of αvβ3 receptor (P06756 891-1048 partner limits assumed): as the sequence (P06756 891-1048 partner limits assumed) above
Sequence of αvβ3 receptor (P05106 27-788): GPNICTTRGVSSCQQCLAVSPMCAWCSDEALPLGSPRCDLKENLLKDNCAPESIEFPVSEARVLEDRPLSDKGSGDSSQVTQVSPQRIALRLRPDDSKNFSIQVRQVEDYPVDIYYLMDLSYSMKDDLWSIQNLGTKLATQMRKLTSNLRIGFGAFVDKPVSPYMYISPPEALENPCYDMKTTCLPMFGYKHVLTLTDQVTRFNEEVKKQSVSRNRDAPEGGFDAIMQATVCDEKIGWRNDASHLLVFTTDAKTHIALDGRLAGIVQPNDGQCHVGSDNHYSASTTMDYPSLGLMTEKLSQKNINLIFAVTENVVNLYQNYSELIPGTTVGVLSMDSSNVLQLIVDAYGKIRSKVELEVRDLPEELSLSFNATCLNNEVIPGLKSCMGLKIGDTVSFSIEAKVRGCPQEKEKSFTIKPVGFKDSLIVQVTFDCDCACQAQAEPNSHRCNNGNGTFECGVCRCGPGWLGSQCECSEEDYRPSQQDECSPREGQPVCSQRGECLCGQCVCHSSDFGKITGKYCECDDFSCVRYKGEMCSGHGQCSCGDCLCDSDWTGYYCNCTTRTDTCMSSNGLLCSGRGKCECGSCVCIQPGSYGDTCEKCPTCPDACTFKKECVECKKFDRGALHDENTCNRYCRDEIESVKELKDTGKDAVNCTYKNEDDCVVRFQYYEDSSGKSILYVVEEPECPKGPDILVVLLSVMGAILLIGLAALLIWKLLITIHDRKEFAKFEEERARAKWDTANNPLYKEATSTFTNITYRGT

| Compound | IC50 [1] [µM] | Ki [1] [µM] | IC50 [2, 8] [µM] | IC50 [3, 9] [µM] | IC50 [4] [µM] | Ki [4] [µM] | IC50 [5, 10] [µM] | IC50 [6, 11] [µM] | stability [7] | Ki [1, 12] [µM] | IC50 [1, 13] [µM] | IC50 ([2]; 1 h) [µM] | IC50 ([3]; 1 h) [µM] | Ki [4, 14] [µM] | IC50 [4, 15] [µM] | IC50 ([5]; human) [µM] | IC50 ([6]; human) [µM] |
| --- | --- | --- | --- | --- | --- | --- | --- | --- | --- | --- | --- | --- | --- | --- | --- | --- | --- |
| CC[C@@]1(O)C(=O)OCc2c1cc1n(c2=O)Cc2c-1nc1ccccc1c2C=NOCCNC(=O)OCc1ccc(NC(=O)[C@H](CCCCN)NC(=O)[C@H](Cc2ccccc2)NC(=O)COCCOCCOCC(=O)NCc2ccc(C[C@@H]3NC(=O)[C@@H](Cc4ccccc4)NC(=O)[C@H](CC(=O)O)NC(=O)CNC(=O)[C@H](CCCNC(=N)N)NC3=O)cc2)cc1 [ST3280] | 0.0097 ± 6e-05 | 0.0085 | 1.8 ± 0.4 | 2.7 ± 0.3 | 0.0344 ± 0.0008 | 0.023 | 0.2 ± 0.03 | 0.0084 ± 0.0006 | highly unstable | – | – | – | – | – | – | – | – |
| CC[C@@]1(O)C(=O)OCc2c1cc1n(c2=O)Cc2c-1nc1ccccc1c2C=NOCCNC(=O)OCc1ccc(NC(=O)[C@H](CCCNC(N)=O)NC(=O)[C@H](C)NC(=O)c2cn(CCOCCOCCOCCC(=O)NCc3ccc(C[C@@H]4NC(=O)[C@@H](Cc5ccccc5)NC(=O)[C@H](CC(=O)O)NC(=O)CNC(=O)[C@H](CCCNC(=N)N)NC4=O)cc3)nn2)cc1 [ST4167] | 0.011 ± 0.0008 | 0.0087 | 0.56 ± 0.07 | 0.67 ± 0.02 | 0.0184 ± 0.00089 | 0.0138 | 1 ± 0.1 | 0.03 ± 0.003 | – | – | – | – | – | – | – | – | – |
| CC[C@@]1(O)C(=O)OCc2c1cc1n(c2=O)Cc2c-1nc1ccccc1c2C=NOCCNC(=O)OCc1ccc(NC(=O)[C@H](CCCNC(N)=O)NC(=O)[C@H](C)NC(=O)c2cn(CCOCCOCCOCCC(=O)N[C@@H](CCCNC(N)=O)C(=O)NCCOCCOCCOCCC(=O)NCc3ccc(C[C@@H]4NC(=O)[C@@H](Cc5ccccc5)NC(=O)[C@H](CC(=O)O)NC(=O)CNC(=O)[C@H](CCCNC(=N)N)NC4=O)cc3)nn2)cc1 [ST4215] | – | – | 4.6 ± 0.8 | 1.7 ± 0.2 | – | – | 2.5 ± 0.7 | 0.009 ± 0.0007 | – | – | – | – | – | – | – | – | – |
| CC[C@@]1(O)C(=O)OCc2c1cc1n(c2=O)Cc2c-1nc1ccccc1c2C=NOCCNC(=O)OCc1ccc(NC(=O)[C@H](CCCNC(N)=O)NC(=O)[C@H](C)NC(=O)COCCOCCOCC(=O)NCc2cn(CC(=O)N[C@@H](CCC(=O)NCCOCCOCCOCCC(=O)NCc3ccc(C[C@@H]4NC(=O)[C@@H](Cc5ccc(O)cc5)NC(=O)[C@H](CC(=O)O)NC(=O)CNC(=O)[C@H](CCCNC(=N)N)NC4=O)cc3)C(=O)NCCOCCOCCOCCC(=O)NCc3ccc(C[C@@H]4NC(=O)[C@@H](Cc5ccc(O)cc5)NC(=O)[C@H](CC(=O)O)NC(=O)CNC(=O)[C@H](CCCNC(=N)N)NC4=O)cc3)nn2)cc1 [ST5744TF1] | – | – | – | – | – | – | – | – | – | 0.0024 | 0.00301 ± 0.00011 | 0.39 ± 0.09 | 0.45 ± 0.02 | 0.00295 | 0.00384 ± 0.00012 | 1 ± 0.02 | 0.008 ± 0.0005 |
| Echistatin [reference compound] | – | – | – | – | – | – | – | – | – | 0.00026 | 0.00028 ± 8e-05 | – | – | 0.00033 | 0.00029 ± 2e-05 | – | – |
